US20110071108A1, “Beta-Cyclodextrin Derivatives as Antibacterial Agents” (Pinnacle Pharmaceuticals, Inc., priority 2005, published 2011)

What was measured:
Assay in all cases: Bacterial panel testing, MIC by broth microdilution
Assay type in all cases: cell-based
Conditions in all cases: 20-24 hours growth
[1] = tested on: Staphylococcus aureus
Summary of the method: (§1)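 Strains grown 2-4 h, 37° C, MH or BHI broth per strain; McFarland-standardized, diluted in media. Cpd 10 μg/ml in DMSO, 2-fold serial dilution cols 2-12. Rifampicin included. 20-24 h growth; clear wells scored.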

[2] = tested on: Pseudomonas aeruginosa
Summary of the method: as §1

[3] = tested on: Eschericia coli
Summary of the method: as §1

[4] = tested on: Salmonella choleraesuis
Summary of the method: as §1

[5] = tested on: Enterococcus faecium
Summary of the method: as §1

[6] = tested on: Bacillus atrophaeus
Summary of the method: as §1

Cl.Cl.Cl.Cl.Cl.Cl.Cl.N[C@@H](Cc1ccc(O)cc1)C(=O)NC[C@H]1O[C@@H]2O[C@H]3[C@H](O)[C@@H](O)[C@@H](O[C@H]4[C@H](O)[C@@H](O)[C@@H](O[C@H]5[C@H](O)[C@@H](O)[C@@H](O[C@H]6[C@H](O)[C@@H](O)[C@@H](O[C@H]7[C@H](O)[C@@H](O)[C@@H](O[C@H]8[C@H](O)[C@@H](O)[C@@H](O[C@H]1[C@H](O)[C@H]2O)O[C@@H]8CNC(=O)[C@@H](N)Cc1ccc(O)cc1)O[C@@H]7CNC(=O)[C@@H](N)Cc1ccc(O)cc1)O[C@@H]6CNC(=O)[C@@H](N)Cc1ccc(O)cc1)O[C@@H]5CNC(=O)[C@@H](N)Cc1ccc(O)cc1)O[C@@H]4CNC(=O)[C@@H](N)Cc1ccc(O)cc1)O[C@@H]3CNC(=O)[C@@H](N)Cc1ccc(O)cc1
>200 µg/mL: MIC SA [1] | MIC PA [2] | MIC EC [3] | MIC SC [4] | MIC EF [5]

Cl.Cl.Cl.Cl.Cl.Cl.Cl.NC(CCC(=O)OCc1ccccc1)C(=O)NCC1OC2OC3C(CNC(=O)C(N)CCC(=O)OCc4ccccc4)OC(OC4C(CNC(=O)C(N)CCC(=O)OCc5ccccc5)OC(OC5C(CNC(=O)C(N)CCC(=O)OCc6ccccc6)OC(OC6C(CNC(=O)C(N)CCC(=O)OCc7ccccc7)OC(OC7C(CNC(=O)C(N)CCC(=O)OCc8ccccc8)OC(OC8C(CNC(=O)C(N)CCC(=O)OCc9ccccc9)OC(OC1C(O)C2O)C(O)C8O)C(O)C7O)C(O)C6O)C(O)C5O)C(O)C4O)C(O)C3O (stereo not drawn)
>200 µg/mL: MIC SA [1] | MIC PA [2] | MIC EC [3] | MIC SC [4] | MIC EF [5]

Cl.Cl.Cl.Cl.Cl.Cl.Cl.NC(CS)C(=O)NCC1OC2OC3C(CNC(=O)C(N)CS)OC(OC4C(CNC(=O)C(N)CS)OC(OC5C(CNC(=O)C(N)CS)OC(OC6C(CNC(=O)C(N)CS)OC(OC7C(CNC(=O)C(N)CS)OC(OC8C(CNC(=O)C(N)CS)OC(OC1C(O)C2O)C(O)C8O)C(O)C7O)C(O)C6O)C(O)C5O)C(O)C4O)C(O)C3O (stereo not drawn)
>200 µg/mL: MIC SA [1] | MIC PA [2] | MIC EC [3] | MIC SC [4] | MIC EF [5]

CSCCC(N)C(=O)NCC1OC2OC3C(CNC(=O)C(N)CCSC)OC(OC4C(CNC(=O)C(N)CCSC)OC(OC5C(CNC(=O)C(N)CCSC)OC(OC6C(CNC(=O)C(N)CCSC)OC(OC7C(CNC(=O)C(N)CCSC)OC(OC8C(CNC(=O)C(N)CCSC)OC(OC1C(O)C2O)C(O)C8O)C(O)C7O)C(O)C6O)C(O)C5O)C(O)C4O)C(O)C3O.Cl.Cl.Cl.Cl.Cl.Cl.Cl (stereo not drawn)
>200 µg/mL: MIC BA [6] | MIC SA [1] | MIC PA [2] | MIC EC [3] | MIC SC [4] | MIC EF [5]

O=C(Cn1ccnc1)NCC1OC2OC3C(CNC(=O)Cn4ccnc4)OC(OC4C(CNC(=O)Cn5ccnc5)OC(OC5C(CNC(=O)Cn6ccnc6)OC(OC6C(CNC(=O)Cn7ccnc7)OC(OC7C(CNC(=O)Cn8ccnc8)OC(OC8C(CNC(=O)Cn9ccnc9)OC(OC1C(O)C2O)C(O)C8O)C(O)C7O)C(O)C6O)C(O)C5O)C(O)C4O)C(O)C3O (stereo not drawn)
>200 µg/mL: MIC BA [6] | MIC SA [1] | MIC PA [2] | MIC EC [3] | MIC SC [4] | MIC EF [5]

OCC1OC(OCc2cn(CC3OC4OC5C(Cn6cc(COC7OC(CO)C(O)C(O)C7O)nn6)OC(OC6C(Cn7cc(COC8OC(CO)C(O)C(O)C8O)nn7)OC(OC7C(Cn8cc(COC9OC(CO)C(O)C(O)C9O)nn8)OC(OC8C(Cn9cc(COC%10OC(CO)C(O)C(O)C%10O)nn9)OC(OC9C(Cn%10cc(COC%11OC(CO)C(O)C(O)C%11O)nn%10)OC(OC%10C(Cn%11cc(COC%12OC(CO)C(O)C(O)C%12O)nn%11)OC(OC3C(O)C4O)C(O)C%10O)C(O)C9O)C(O)C8O)C(O)C7O)C(O)C6O)C(O)C5O)nn2)C(O)C(O)C1O (stereo not drawn)
>200 µg/mL: MIC BA [6] | MIC SA [1] | MIC PA [2] | MIC EC [3] | MIC SC [4] | MIC EF [5]

CN(C)CCNCC(=O)NCC1OC2OC3C(CNC(=O)CNCCN(C)C)OC(OC4C(CNC(=O)CNCCN(C)C)OC(OC5C(CNC(=O)CNCCN(C)C)OC(OC6C(CNC(=O)CNCCN(C)C)OC(OC7C(CNC(=O)CNCCN(C)C)OC(OC8C(CNC(=O)CNCCN(C)C)OC(OC1C(O)C2O)C(O)C8O)C(O)C7O)C(O)C6O)C(O)C5O)C(O)C4O)C(O)C3O.Cl.Cl.Cl.Cl.Cl.Cl.Cl (stereo not drawn)
>200 µg/mL: MIC BA [6] | MIC SA [1] | MIC EC [3] | MIC SC [4] | MIC EF [5]

Cl.Cl.Cl.Cl.Cl.Cl.Cl.O=C(CN1CCOCC1)NCC1OC2OC3C(CNC(=O)CN4CCOCC4)OC(OC4C(CNC(=O)CN5CCOCC5)OC(OC5C(CNC(=O)CN6CCOCC6)OC(OC6C(CNC(=O)CN7CCOCC7)OC(OC7C(CNC(=O)CN8CCOCC8)OC(OC8C(CNC(=O)CN9CCOCC9)OC(OC1C(O)C2O)C(O)C8O)C(O)C7O)C(O)C6O)C(O)C5O)C(O)C4O)C(O)C3O (stereo not drawn)
>200 µg/mL: MIC BA [6] | MIC SA [1] | MIC PA [2] | MIC EC [3] | MIC SC [4] | MIC EF [5]

CC(C)(C)OC(=O)NCCCC[C@H](N)C(=O)NCC1OC2OC3C(CNC(=O)[C@@H](N)CCCCNC(=O)OC(C)(C)C)OC(OC4C(CNC(=O)[C@@H](N)CCCCNC(=O)OC(C)(C)C)OC(OC5C(CNC(=O)[C@@H](N)CCCCNC(=O)OC(C)(C)C)OC(OC6C(CNC(=O)[C@@H](N)CCCCNC(=O)OC(C)(C)C)OC(OC7C(CNC(=O)[C@@H](N)CCCCNC(=O)OC(C)(C)C)OC(OC8C(CNC(=O)[C@@H](N)CCCCNC(=O)OC(C)(C)C)OC(OC1C(O)C2O)C(O)C8O)C(O)C7O)C(O)C6O)C(O)C5O)C(O)C4O)C(O)C3O (stereo partly drawn)
>200 µg/mL: MIC BA [6] | MIC SA [1] | MIC PA [2] | MIC EC [3] | MIC SC [4] | MIC EF [5]

Cl.Cl.Cl.Cl.Cl.Cl.Cl.Cl.Cl.Cl.Cl.Cl.Cl.Cl.Cl.Cl.Cl.Cl.Cl.Cl.Cl.NCCCCC(N)C(=O)NC(CCCCN)C(=O)NCC1OC2OC3C(CNC(=O)C(CCCCN)NC(=O)C(N)CCCCN)OC(OC4C(CNC(=O)C(CCCCN)NC(=O)C(N)CCCCN)OC(OC5C(CNC(=O)C(CCCCN)NC(=O)C(N)CCCCN)OC(OC6C(CNC(=O)C(CCCCN)NC(=O)C(N)CCCCN)OC(OC7C(CNC(=O)C(CCCCN)NC(=O)C(N)CCCCN)OC(OC8C(CNC(=O)C(CCCCN)NC(=O)C(N)CCCCN)OC(OC1C(O)C2O)C(O)C8O)C(O)C7O)C(O)C6O)C(O)C5O)C(O)C4O)C(O)C3O (stereo not drawn)
>200 µg/mL: MIC BA [6] | MIC SA [1] | MIC PA [2] | MIC EC [3] | MIC SC [4] | MIC EF [5]

Cl.Cl.Cl.Cl.Cl.Cl.Cl.O=C(NCC1OC2OC3C(CNC(=O)C4CC(O)CN4)OC(OC4C(CNC(=O)C5CC(O)CN5)OC(OC5C(CNC(=O)C6CC(O)CN6)OC(OC6C(CNC(=O)C7CC(O)CN7)OC(OC7C(CNC(=O)C8CC(O)CN8)OC(OC8C(CNC(=O)C9CC(O)CN9)OC(OC1C(O)C2O)C(O)C8O)C(O)C7O)C(O)C6O)C(O)C5O)C(O)C4O)C(O)C3O)C1CC(O)CN1 (stereo not drawn)
>200 µg/mL: MIC BA [6] | MIC SA [1] | MIC PA [2] | MIC EC [3] | MIC SC [4] | MIC EF [5]

CCCCCCCCCCCCNCC1OC2OC3C(CNCCCCCCCCCCCC)OC(OC4C(CNCCCCCCCCCCCC)OC(OC5C(CNCCCCCCCCCCCC)OC(OC6C(CNCCCCCCCCCCCC)OC(OC7C(CNCCCCCCCCCCCC)OC(OC8C(CNCCCCCCCCCCCC)OC(OC1C(O)C2O)C(O)C8O)C(O)C7O)C(O)C6O)C(O)C5O)C(O)C4O)C(O)C3O (stereo not drawn)
>200 µg/mL: MIC BA [6] | MIC PA [2] | MIC EC [3] | MIC SC [4] | MIC EF [5]

CCCCCCCCCCCCCCCCNCC1OC2OC3C(CNCCCCCCCCCCCCCCCC)OC(OC4C(CNCCCCCCCCCCCCCCCC)OC(OC5C(CNCCCCCCCCCCCCCCCC)OC(OC6C(CNCCCCCCCCCCCCCCCC)OC(OC7C(CNCCCCCCCCCCCCCCCC)OC(OC8C(CNCCCCCCCCCCCCCCCC)OC(OC1C(O)C2O)C(O)C8O)C(O)C7O)C(O)C6O)C(O)C5O)C(O)C4O)C(O)C3O (stereo not drawn)
>200 µg/mL: MIC BA [6] | MIC PA [2] | MIC EC [3] | MIC SC [4] | MIC EF [5]
